The record followed here is paper PMC6461439, “Enzyme activity and selectivity filter stability of ancient TRPM2 channels were simultaneously lost in early vertebrates” (eLife, 2019).

For test [1], the target named is T1, nvTRPM2 (Nematostella vectensis, UniProt A7T1N0, E1443I/F1444L).
T1 construct: gene TRPM2

Test [2] concerns the target T2, nvTRPM2 (Nematostella vectensis, UniProt A7T1N0, E1446K/E1447K).
T2 construct: gene TRPM2

T2 sequence (A7T1N0 whole entry E1446K/E1447K): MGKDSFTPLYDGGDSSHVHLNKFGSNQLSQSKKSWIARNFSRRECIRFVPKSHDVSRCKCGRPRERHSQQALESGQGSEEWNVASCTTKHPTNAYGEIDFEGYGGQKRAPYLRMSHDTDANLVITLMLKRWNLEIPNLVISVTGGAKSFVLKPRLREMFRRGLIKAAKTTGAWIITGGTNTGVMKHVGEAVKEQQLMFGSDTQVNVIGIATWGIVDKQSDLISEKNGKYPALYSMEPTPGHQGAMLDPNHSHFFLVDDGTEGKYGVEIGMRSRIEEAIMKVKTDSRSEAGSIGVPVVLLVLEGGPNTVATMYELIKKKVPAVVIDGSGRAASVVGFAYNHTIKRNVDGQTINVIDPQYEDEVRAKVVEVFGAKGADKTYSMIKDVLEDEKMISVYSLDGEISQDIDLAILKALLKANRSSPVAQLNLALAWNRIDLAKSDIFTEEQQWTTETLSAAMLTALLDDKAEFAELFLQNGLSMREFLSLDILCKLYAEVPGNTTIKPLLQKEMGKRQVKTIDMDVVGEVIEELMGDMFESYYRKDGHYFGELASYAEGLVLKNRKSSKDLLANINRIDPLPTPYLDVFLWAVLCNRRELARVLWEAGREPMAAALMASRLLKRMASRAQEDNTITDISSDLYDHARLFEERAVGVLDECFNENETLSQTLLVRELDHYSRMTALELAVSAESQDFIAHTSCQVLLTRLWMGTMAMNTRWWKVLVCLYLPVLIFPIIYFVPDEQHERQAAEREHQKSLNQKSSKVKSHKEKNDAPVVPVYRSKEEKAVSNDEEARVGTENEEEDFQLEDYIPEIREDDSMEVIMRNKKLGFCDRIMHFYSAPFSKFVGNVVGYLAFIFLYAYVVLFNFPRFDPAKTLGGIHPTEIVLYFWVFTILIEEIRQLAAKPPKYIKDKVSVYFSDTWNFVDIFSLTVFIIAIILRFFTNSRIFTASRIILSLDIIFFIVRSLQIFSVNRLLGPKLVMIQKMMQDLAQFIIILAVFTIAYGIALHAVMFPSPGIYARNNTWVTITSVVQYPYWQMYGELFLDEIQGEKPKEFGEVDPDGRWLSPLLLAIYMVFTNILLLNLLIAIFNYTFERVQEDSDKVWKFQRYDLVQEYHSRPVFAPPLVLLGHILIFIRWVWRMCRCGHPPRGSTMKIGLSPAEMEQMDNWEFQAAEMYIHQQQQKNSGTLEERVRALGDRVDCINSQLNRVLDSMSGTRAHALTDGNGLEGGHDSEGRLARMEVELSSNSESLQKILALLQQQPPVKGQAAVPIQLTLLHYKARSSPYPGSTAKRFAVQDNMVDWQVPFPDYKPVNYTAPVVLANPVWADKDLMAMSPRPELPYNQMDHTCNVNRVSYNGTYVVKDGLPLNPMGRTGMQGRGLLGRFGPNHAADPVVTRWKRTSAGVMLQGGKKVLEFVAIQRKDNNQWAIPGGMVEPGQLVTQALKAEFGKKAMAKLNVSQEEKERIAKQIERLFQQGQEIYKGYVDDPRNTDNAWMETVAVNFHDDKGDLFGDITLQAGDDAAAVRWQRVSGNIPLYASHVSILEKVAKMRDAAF
T1 sequence (A7T1N0 whole entry E1443I/F1444L): as the sequence (A7T1N0 whole entry E1446K/E1447K) above, with E1443I, F1444L, K1446E, K1447E counted along it

As a reminder, the EC50 is the concentration that produces a half-maximal response. Low values mean greater potency, high ones weaker potency. As for `Nc1ncnc2c1ncn2[C@@H]1O[C@H](COP(=O)(O)OP(=O)(O)OC[C@H]2OC(O)[C@H](O)[C@@H]2O)[C@@H](O)[C@H]1O` (some centres unmarked) [ADPR], the 50% effective concentration (EC50) at nvTRPM2 [1] and on nvTRPM2 [2] was about 2 µM in each case.
